Reference: US20220117938A1, “COMBINATON THERAPY WITH A DON PRODRUG AND AN IMMUNE CHECKPOINT INHIBITOR” (DRACEN PHARMACEUTICALS, INC., priority 2019, published 2022)

Tested on: Ninety four (94) cell lines and PBMC
Test: Cell viability assay, SRB staining, 94 cell lines and PBMC (Example 7, Experiment 2)
Assay type: cell-based
Protocol: Ninety four (94) cell lines were seeded at a density varying from 500 to 7000 cells/well depending on their growth characteristics. PBMC were seeded at the density 50,000-100,000 cells/well. Cells were incubated for 48 h prior to compound treatment. Compound 1 and DON were evaluated at a concertation range of 1 nM up to 100 μM. Compound 1 dilutions in DMSO and DON dilutions in PBS were performed in 96-well 0.5 mL plates (Greiner Bio-One, Germany). Compounds were then diluted 1:100 in RPMI medium. […] of cells were treated by mixing with 10 μL of the compound-containing media (resulting in a final DMSO concentration of 0.1%). The cells were allowed to grow at 37° C. for 120 h. Cells were fixed to the surface by addition of 10% TCA (for adherent growing cells) or 50% TCA (for semi-adherent growing cells or cells growing in suspension). After an hour of incubation at 4° C., plates were washed twice with 400 μL of deionized water and dried. Cells were then stained with 100 μL of 0.04% wt/v SRB. The plates were incubated at room temperature for at least 30 min and washed six times with 1% acetic acid to remove unbound stain. The plates were left to dry at room temperature and bound SRB was solubilized with 100 μL of 10 mM Tris base. Optical density was measured at 492, 520 and 560 nm using a Deelux-LED96 plate reader (Deelux Labortechnik GmbH, Germany).
Cell lines were purchased directly from the ATCC, NCI, CLS, and DSMZ cell line collections. A master bank and working aliquots were prepared. Cells used for the study had undergone less than 20 passages. To rule out potential contamination or wrong assignment, all cell lines were tested by STR analysis. Absence of mycoplasma contamination was confirmed for all cell lines used in the studies.
The cell lines were grown in the media recommended by the suppliers in the presence of 100 U/mL penicillin and 100 μg/mL streptomycin supplied with 10% FCS (PAA, Germany). RPMI 1640, DMEM, and MEM Earle's medium were from PAA (Coelbe, Germany), supplements 2 mM L-glutamine, 1 mM Na-pyruvate and 1% NEAA were from PAA (Coelbe, Germany), 2.5% horse serum, hydrocortisone, transferin, beta-estradiol, selenite and 1 U/mL insulin from Sigma-Aldrich (Munich, Germany). RPMI medium was used for culturing the following cell lines: 5637, 22RV1, 7860, A2780, A431, A549, ACHN, ASPC1, BT20, BXPC3, CAKI1, CLS439, COLO205, COLO678, DLD1, DU145, EFO21, EJ28, HCT15, HS578T, IGROV1, JAR, LOVO, MCF7, MDA MB231, MDA MB435, MDA MB436, MDA MB468, MHHES1, MT3, NCI H292, NCI H358M, NCI H460, NCIH82, OVCAR3, OVCAR4, PANC 1005 (addition of insulin), PBMC, PC3, RDES, SF268, SF295, SKBR3, SK MEL28, SKMEL5, SKOV3, SW620, U2OS, UMUC3, and U031.
DMEM medium was used to culture A204, A375, A673, C33A, CASKI, HCT116, HEPG2, HS729, HT29, J82, MG63, MIAPACA2 (addition of horse serum), PANC1, PLCPRF5, RD, SAOS2, SKLMS1, SKNAS, SNB75, T24, and TE671.
MEM Earle's medium was used for CACO2, CALU6, HEK293, HELA, HT1080, IMR90, JEG3, JIMT1, SKHEP1, SKNSH, and U87MG. Cell seeding conditions were optimized for each cell line. The cell seeding density varied from 500 to 7000 cells/well depending on their growth characteristics. Peripheral blood mononuclear cells (PBMC) were freshly isolated from whole blood of an anonymous donor through density gradient centrifugation using Ficoll solution (d=1.077). In short, blood was diluted 1:1 with PBS and carefully placed on the Ficoll. After centrifugation 1000×g for 15 min (braking rate 0), the ring containing mainly leucocytes was collected in PBS followed by three times washing with PBS to reduce the platelets. PBMC were seeded at the density 50,000-100,000 cells/well. Cells were grown in 5% CO2 atmosphere in a NB-203XXL incubator (N-BIOTEK Inc., Korea).
Ninety-four cell lines were tested in parallel. Cell growth and treatment were performed in 96 well microtitre plates CELLSTAR® (Greiner Bio-One, Germany). […]

[1] = Homo sapiens, 22Rv1, 22RV1, prostate
[2] = Homo sapiens, 786-0, 786O, kidney
[3] = Homo sapiens, A204, A204, muscle
[4] = Homo sapiens, A673, A673, muscle
[5] = Homo sapiens, A2780, A2780, ovary
[6] = Homo sapiens, A-375, A375, skin
[7] = Homo sapiens, A-431, A431, skin
[8] = Homo sapiens, ASPC1, ASPC1, pancreas
[9] = Homo sapiens, BT-20, BT20, breast
[10] = Homo sapiens, C-33-A, C33A, endometrial
[11] = Homo sapiens, CAKI-1, CAKI1, kidney
[12] = Homo sapiens, COLO 205, COLO205, colon
[13] = Homo sapiens, COLO-678, COLO678, colon
[14] = Homo sapiens, Ca-Ski, CASKI, endometrial
[15] = Homo sapiens, Caco-2, CACO2, colon
[16] = Homo sapiens, Calu-6, CALU6, lung
[17] = Homo sapiens, DLD-1, DLD1, colon
[18] = Homo sapiens, DU-145, DU145, prostate
[19] = Homo sapiens, EFO-21, EFO21, ovary
[20] = Homo sapiens, EJ-28, EJ28, bladder
[21] = Homo sapiens, Granta-519, GRANTA-519, hematological
[22] = Homo sapiens, HCT-15, HCT15, colon
[23] = Homo sapiens, HCT-116, HCT116, colon
[24] = Homo sapiens, HEK293, HEK293, kidney
[25] = Homo sapiens, HL-60, HL-60, hematological
[26] = Homo sapiens, HT-29, HT29, colon
[27] = Homo sapiens, HT-1080, HT1080, connective tissue
[28] = Homo sapiens, HeLa, endometrial
[29] = Homo sapiens, HepG2, HEPG2, liver
[30] = Homo sapiens, IGROV-1, IGROV1, ovary
[31] = Homo sapiens, JEG-3, JEG3, placenta
[32] = Homo sapiens, JIMT-1, JIMT1, breast
[33] = Homo sapiens, K562, K-562, hematological
[34] = Homo sapiens, Kasumi 1, KASUMI-1, hematological
[35] = Homo sapiens, L-363, L-363, hematological
[36] = Homo sapiens, MCF7, MCF7, breast
[37] = Homo sapiens, MDA-MB-231, MDAMB231, breast
[38] = Homo sapiens, MDA-MB-435, MDAMB435, skin

Structure (SMILES): [N-]=[N+]=CC(=O)CC[C@H](N)C(=O)O [DON, 6-Diazo-5-oxo-L-norleucine, reference compound]
- IC50 (5637, bladder): 0.881 µM
- IC50 (CLS439, bladder): 7.82 µM
- GI50 [1]: 0.981 µM
- IC50 [1]: 1.04 µM
- GI50 [2]: 2.39 µM
- IC50 [2]: 2.93 µM
- GI50 [3]: 4.99 µM
- IC50 [3]: 17 µM
- GI50 (Homo sapiens, A549, A549, lung): 4.05 µM
- IC50 (Homo sapiens, A549, A549, lung): 4.49 µM
- GI50 [4]: 1.95 µM
- IC50 [4]: 2.2 µM
- GI50 [5]: 3.65 µM
- IC50 [5]: 3.9 µM
- GI50 [6]: 3.15 µM
- IC50 [6]: 3.33 µM
- GI50 [7]: 6.5 µM
- IC50 [7]: 8.52 µM
- GI50 (Homo sapiens, ACHN, kidney): 5.34 µM
- IC50 (Homo sapiens, ACHN, kidney): 6.34 µM
- GI50 [8]: 3.92 µM
- IC50 [8]: 5.58 µM
- GI50 [9]: 16.8 µM
- IC50 [9]: 51.1 µM
- GI50 (Homo sapiens, BXPC-3, BXPC3, pancreas): 1.45 µM
- GI50 [10]: 6.48 µM
- IC50 [10]: 7.04 µM
- GI50 [11]: 1.16 µM
- IC50 [11]: 1.62 µM
- GI50 [12]: 1.32 µM
- IC50 [12]: 2.01 µM
- GI50 [13]: 58.9 µM
- IC50 [13]: 152 µM
- GI50 [14]: 5.49 µM
- IC50 [14]: 6.51 µM
- GI50 [15]: 11.2 µM
- IC50 [15]: 18.6 µM
- GI50 [16]: 6.05 µM
- IC50 [16]: 6.97 µM
- GI50 [17]: 0.906 µM
- IC50 [17]: 1.02 µM
- GI50 [18]: 5.24 µM
- IC50 [18]: 6.16 µM
- GI50 [19]: 6.32 µM
- IC50 [19]: 14.6 µM
- GI50 [20]: 4.19 µM
- IC50 [20]: 4.89 µM
- GI50 [21]: 0.779 µM
- IC50 [21]: 0.812 µM
- GI50 [22]: 1.13 µM
- IC50 [22]: 1.3 µM
- GI50 [23]: 2.06 µM
- IC50 [23]: 2.1 µM
- GI50 [24]: 10.6 µM
- IC50 [24]: 15.2 µM
- GI50 [25]: 1.56 µM
- IC50 [25]: 1.6 µM
- GI50 [26]: 2.89 µM
- IC50 [26]: 3.41 µM
- GI50 [27]: 0.666 µM
- IC50 [27]: 0.795 µM
- GI50 [28]: 8.17 µM
- IC50 [28]: 9.13 µM
- GI50 [29]: 7.3 µM
- IC50 [29]: 8.97 µM
- GI50 (Homo sapiens, Hs-578T, HS578T, breast): 25.1 µM
- GI50 [30]: 6.99 µM
- IC50 [30]: 10.1 µM
- GI50 (Homo sapiens, IMR-90, IMR90, lung): 11.8 µM
- GI50 [31]: 5.79 µM
- IC50 [31]: 6.64 µM
- GI50 [32]: 11.2 µM
- IC50 [32]: 26.8 µM
- GI50 [33]: 1.06 µM
- IC50 [33]: 1.17 µM
- GI50 [34]: 5.17 µM
- IC50 [34]: 12.7 µM
- GI50 [35]: 0.343 µM
- IC50 [35]: 0.522 µM
- GI50 (Homo sapiens, LoVo, colon): 4.36 µM
- IC50 (Homo sapiens, LoVo, colon): 4.66 µM
- GI50 [36]: 2.09 µM
- IC50 [36]: 6.07 µM
- GI50 [37]: 8.37 µM
- IC50 [37]: 13.8 µM
- GI50 [38]: 2.48 µM
- IC50 [38]: 2.66 µM
- GI50 (Homo sapiens, MDA-MB-436, MDAMB436, breast): 13.3 µM
